In US9186361B2, “Compounds and compositions for the treatment of parasitic diseases” (Novartis AG, priority 2013, dated 2015):

Columns and labels:
Assay type in all cases: cell-based
[1] = tested on: Leishmania donovani axenic amastigote parasites; test: Assay for Leishmania proliferation in vitro (axenic amastigotes, Cell TiterGlo); conditions: 48 h, 2 day incubation, read-out: L. donovani amastigotes EC50
Protocol: Leishmania donovani axenic amastigote parasites are grown at 37° C., 5% CO2 in media made of RPMI 1640, 4 mM L-glutamine, 20% heat inactivated FBS, 100 units/ml of penicillin and 100 μg/ml of streptomycin, 23 μM Folic Acid, 100 μM Adenosine, 22 mM D-glucose, 25 mM MES. The pH of media is adjusted to 5.5 at 37° C. using HCl. 20 μL of media is first dispensed into 384 well plates and […] of the compounds of invention in DMSO are added to the plate wells. At the same time control compounds and DMSO are added to plates to serve as the positive and negative controls, respectively. 40 μL of parasite culture (9600 parasites) are then added to the plate wells. The plates are then placed into incubators. After 2 day incubation, 20 μL of Cell TiterGlo (Promega) is added to the plate wells. The luminescence signal of each well is measured using the Envision reader (Perkin Elmer). The percentage inhibition of 50%, EC50, is calculated for each of the compounds.

[2] = tested on: L. donovani HU3 strain in mouse peritoneal macrophages; test: Proliferation of L. donovani in mouse peritoneal macrophages (SybrGreen, high-content imaging); conditions: Leishmania donovani, Peritoneal macrophage, 120 h; infected mouse peritoneal macrophages, 5 days; read-out: L. donavani Macrophage EC50
Excerpt: The activity of a compound according to the present invention for inhibition of parasitemai can be assessed by the parasite proliferation assay. The assay measures the increase in the parasite number in the assayed plate well using a DNA intercalating dye, SYBR Green I® dye (INVITROGEN) to stain Leishmania cell nuclei. It is understood that the assays illustrate the invention without in any way limiting the scope of the invention.
L. donovani HU3 strain is propagated by infecting BALBc mice through tail vein injection with 10^7 Leishmania parasites. Infected mice are allowed to develop infection during 9-11 weeks post-infection. During this time, the parasites accumulate in the infected mouse spleens to large numbers, and the infected mice serve as the source of parasites for the in vitro measurement of compound efficacies. To assay a compound for anti-leishmanial activity, peritoneal macrophages isolated from non-infected BALBc mice are seeded into 384-well plates at density 2×10^4 macrophages per well in 25 mL of medium (RPMI1640, 10% fetal serum albumin, 10 mM HEPES, 1 mM sodium pyruvate, 1% Pen/Strep). Subsequently, the seeded plates are placed into an incubator set to maintain 37° C. temperature and atmosphere with 5% CO2. The next day, Leishmania parasites are isolated from the spleens of mice infected for 9-11 weeks and 4×10^5 isolated parasites in […] of the above media are added to each plate well. Plates are then returned into incubators and infection is allowed to proceed for 24 hours. After the infection of macrophages is completed, […] of compounds of the invention in the above medium, which also contains 5% DMSO, are added to plate wells containing infected macrophages. At the same time control compounds (miltefosine and amphotericin B) and DMSO are added to plates to serve as the positive and negative controls, respectively. After the compound addition, the plates are returned into incubator and cells infected with parasites are cultured for 5 days. At the end of cultivation, […] of 8% paraformaldehyde is added to plate wells and incubated for 15 min at room temperature. Following the incubation, the paraformaldehyde from plate wells is aspirated, and […] of PBS containing 0.2% Triton X-100 is added to wells. After 15 min incubation, the solution is aspirated from wells again, and replaced with SybrGreen Dye solution in PBS (1:125,000 dilution). Infected cells are imaged with Evotec Opera high-content microscope, and the number of parasites in well is determined by counting parasite nuclei visualized by staining with SybrGreen dye. The percentage inhibition of 50%, EC50, is calculated for each compound.
The inhibitory efficacy of the compounds of the invention against proliferation of L. donovani in mouse peritoneal macrophages is provided in Table I.

[3] = tested on: Trypanosoma cruzi amastigotes cultured in 3T3 fibroblast cells; test: Assay for proliferation of kinetoplastid parasite Trypanosoma cruzi (beta-galactosidase/CPRG readout); conditions: NIH3T3, 144 h, Tulahuen strain in 3T3 cells, 6 day incubation, read-out: T cruzi EC50
Excerpt: Compounds of the invention can be assayed to measure their capacity to inhibit proliferation of kinetoplastid parasite Trypanosoma cruzi. The screening procedure is for identifying compounds with inhibitor activity against Trypanosoma cruzi amastigotes cultured in 3T3 fibroblast cells. The assay is done using the mammalian stage (amastigotes) of T. cruzi that replicates in the intracellular space of host cells. The host cells are initially infected with the culture-derived trypomastigotes that rapidly invade and then divide as amastigotes. The protocol uses the Tulahuen strain of T. cruzi that has been engineered to express the E. coli beta-galactosidase gene (Lac-Z) (Antimicr. Agents Chemoth. 40:2592, 1996). This allows for a colorimetric readout by using the substrate CPRG and an absorbance plate reader.
3T3 fibroblast cells are re-suspended in RPMI-1640 medium without phenol red medium supplemented with 10% FBS (heat inactivated), 100 μg/ml penicillin, and 100 μg/ml streptomycin. Forty μL of suspension (1,000 cells) is dispensed into 384-well plates and incubated overnight at 37° C. temperature and in atmosphere containing 5% CO2. The following day, 100 nL of compounds of the invention in DMSO are added to plate wells containing 3T3 cells. At the same time control compounds (benznidazole and nifurtimox) and DMSO are added to plates to serve as the positive and negative controls, respectively. After that, 10 μL of media containing 10,000 T. cruzi trypomastigotes are added to each plate well and plates are placed back into incubators. After 6 day incubation, 10 μL of reagent solution (0.6 mM CPRG, 0.6% NP-40 in PBS) is added to plates and incubated at room temperature for 2 hours. Absorbance is then measured on SpectraMax Gemini fluorimeter to determine relative number of T. cruzi cells present in each plate well. The percentage inhibition of 50%, EC50, is calculated for each compound.

Row | Structure (SMILES) | EC50 [1] [µM] | EC50 [2] [µM] | EC50 [3] [µM]
1 | Cc1nc(C)c(C(=O)Nc2cnc3nc(-c4cc(NC(=O)c5ccco5)ccc4Cl)[nH]c3c2)s1 [Example 5, N-{2-[2-chloro-5-(furan-2-amido)phenyl]-1H-imidazo[4,5-b]pyridin-6-yl}-2,4-dimethyl-1,3-thiazole-5-carboxamide] | 0.57 | > 50 | 1.86
2 | CC(C)OC(=O)Nc1cnc2nc(-c3cc(NC(=O)c4ccco4)ccc3Cl)n(C(=O)OC(C)C)c2c1 [Example 7, propan-2-yl 2-[2-chloro-5-(furan-2-amido)phenyl]-6-{[(propan-2-yloxy)carbonyl]amino}-1H-imidazo[4,5-b]pyridine-1-carboxylate] | 0.64 | 1.35 | 0.147
3 | O=C(Nc1ccc(Cl)c(-c2nc3ncc([N+](=O)[O-])cc3[nH]2)c1)c1ccco1 [Example 8, N-(4-chloro-3-{6-nitro-1H-imidazo[4,5-b]pyridin-2-yl}phenyl)furan-2-carboxamide] | 0.96 | 12.4 | 1.02
4 | CC(C)C(=O)Nc1cnc2nc(-c3cc(NC(=O)c4ccco4)ccc3Cl)[nH]c2c1 [Example 10, N-{4-chloro-3-[6-(2-methylpropanamido)-1H-imidazo[4,5-b]pyridin-2-yl]phenyl}furan-2-carboxamide] | 1.17 | 2.29 | 3.7
5 | CNc1cnc2nc(-c3cc(NC(=O)c4ccco4)ccc3Cl)[nH]c2c1 [Example 11, N-{4-chloro-3-[6-(methylamino)-1H-imidazo[4,5-b]pyridin-2-yl]phenyl}furan-2-carboxamide] | 1.84 | 16.6 | 1.27
6 | O=C(Nc1ccc(Cl)c(-c2nc3ncc(NC(=O)N4CCCC4)cc3[nH]2)c1)c1ccco1 [Example 12, N-{2-[2-chloro-5-(furan-2-amido)phenyl]-1H-imidazo[4,5-b]pyridin-6-yl}pyrrolidine-1-carboxamide] | 2.34 | > 26.1 | 11
7 | CC(C)CC(=O)Nc1cnc2nc(-c3cc(NC(=O)c4ccco4)ccc3Cl)[nH]c2c1 [Example 14, N-{4-chloro-3-[6-(3-methylbutanamido)-1H-imidazo[4,5-b]pyridin-2-yl]phenyl}furan-2-carboxamide] | 4.5 | 3.3 | 3.3
8 | CC(C)(C)OC(=O)NCCOC(=O)Nc1cnc2nc(-c3cc(NC(=O)c4ccco4)ccc3Cl)[nH]c2c1 [Example 16, tert-butyl N-{2-[({2-[2-chloro-5-(furan-2-amido)phenyl]-1H-imidazo[4,5-b]pyridin-6-yl}carbamoyl)oxy]ethyl}carbamate] | 5.7 | 10.1 | 4
9 | COCCC(=O)Nc1cnc2nc(-c3cc(NC(=O)c4ccco4)ccc3Cl)[nH]c2c1 [Example 19, N-{4-chloro-3-[6-(3-methoxypropanamido)-1H-imidazo[4,5-b]pyridin-2-yl]phenyl}furan-2-carboxamide] | 13.3 | 25.5 | > 20
10 | CC(C)NC(=O)Nc1cnc2nc(-c3cc(NC(=O)c4ccco4)ccc3Cl)[nH]c2c1 [Example 24, N-[4-chloro-3-(6-{[(propan-2-yl)carbamoyl]amino}-1H-imidazo[4,5-b]pyridin-2-yl)phenyl]furan-2-carboxamide] | 23.2 | > 39.2 | > 20
11 | O=C(CCO)Nc1cnc2nc(-c3cc(NC(=O)c4ccco4)ccc3Cl)[nH]c2c1 [Example 25, N-{4-chloro-3-[6-(3-hydroxypropanamido)-1H-imidazo[4,5-b]pyridin-2-yl]phenyl}furan-2-carboxamide] | 23.2 | > 50 | > 20
12 | O=C(Nc1ccc(Cl)c(-c2nc3ncc(NCc4cccnc4O)cc3[nH]2)c1)c1ccco1 [Example 30] | > 25 | > 50 | > 20
13 | NCC(=O)Nc1cnc2nc(-c3cc(NC(=O)c4ccco4)ccc3Cl)[nH]c2c1 [Example 33, N-{3-[6-(2-aminoacetamido)-1H-imidazo[4,5-b]pyridin-2-yl]-4-chlorophenyl}furan-2-carboxamide] | > 25 | > 50 | 19.1
14 | CN1CCC(C(=O)Nc2cnc3nc(-c4cc(NC(=O)c5ccco5)ccc4Cl)[nH]c3c2)CC1 [Example 36, N-{2-[2-chloro-5-(furan-2-amido)phenyl]-1H-imidazo[4,5-b]pyridin-6-yl}-1-methylpiperidine-4-carboxamide] | > 25 | > 50 | 19
15 | O=C(Nc1ccc(Cl)c(-c2nc3ncc(NC(=O)C4CC(F)C4)cc3[nH]2)c1)c1ccco1 (stereo not drawn) [Example 38, N-(4-chloro-3-{6-[(3-fluorocyclobutane)amido]-1H-imidazo[4,5-b]pyridin-2-yl}phenyl)furan-2-carboxamide] | 2.13 | 3.7 | 4.4
16 | COc1ccc(C(=O)Nc2ccc(Cl)c(-c3nc4ncc(NC(=O)OC(C)C)cc4[nH]3)c2)o1 [Example 39, propan-2-yl N-{2-[2-chloro-5-(5-methoxyfuran-2-amido)phenyl]-1H-imidazo[4,5-b]pyridin-6-yl}carbamate] | 13.8 | 17.7 | 6.7
17 | CC1(C(=O)Nc2cnc3nc(-c4cc(NC(=O)c5ccco5)ccc4Cl)[nH]c3c2)COC1 [Example 43, N-{4-chloro-3-[6-(3-methyloxetane-3-amido)-1H-imidazo[4,5-b]pyridin-2-yl]phenyl}furan-2-carboxamide] | > 25 | 47.4 | > 20
18 | O=C(Nc1ccc(Cl)c(-c2nc3ncc(NC(=O)C4CCNCC4)cc3[nH]2)c1)c1ccco1 [Example 46, N-{2-[2-chloro-5-(furan-2-amido)phenyl]-1H-imidazo[4,5-b]pyridin-6-yl}piperidine-4-carboxamide] | > 25 | > 50 | > 20
19 | CNS(=O)(=O)Nc1cnc2nc(-c3cc(NC(=O)c4ccco4)ccc3Cl)[nH]c2c1 [Example 52, N-(4-chloro-3-{6-[(methylsulfamoyl)amino]-1H-imidazo[4,5-b]pyridin-2-yl}phenyl)furan-2-carboxamide] | > 25 | 28.9 | > 20
